Species: Rattus norvegicus
Assay: DrugMatrix - Regimen: Daily Repeat
Assay type: toxicity, organism-based, Sprague-Dawley
Set-up: regimen Daily Repeat, gender Male, age 6-8 weeks
Settings: in vivo, iv, vehicle 100 % SALINE; for ABSOLUTE BASOPHIL / ABSOLUTE EOSINOPHIL / ABSOLUTE LYMPHOCYTE / ABSOLUTE MONOCYTE / ABSOLUTE SEGMENTED NEUTROPHIL / BASOPHIL / EOSINOPHIL / ERYTHROCYTE COUNT / HEMATOCRIT / HEMOGLOBIN / LEUKOCYTE COUNT / LYMPHOCYTE / MEAN CORPUSCULAR HEMOGLOBIN / MEAN CORPUSCULAR HEMOGLOBIN CONCENTRATION / MEAN CORPUSCULAR VOLUME / MONOCYTE / NEUTROPHIL / NUCLEATED RED BLOOD CELLS / PLATELET COUNT: tissue Blood; for ALANINE AMINOTRANSFERASE / ALBUMIN / ALKALINE PHOSPHATASE / ASPARTATE AMINOTRANSFERASE / BLOOD UREA NITROGEN / CARBON DIOXIDE / CHLORIDE / CHOLESTEROL / CREATINE PHOSPHOKINASE / CREATININE / GLUCOSE / LACTATE DEHYDROGENASE / LIPASE / PHOSPHORUS / POTASSIUM / SODIUM / TOTAL BILIRUBIN / TOTAL PROTEIN / URIC ACID: tissue Plasma
[1] = 0 mg/kg, 72 h, dose level Control, time 3 day
[2] = 0 mg/kg, 120 h, dose level Control, time 5 day
[3] = 3 mg/kg, 72 h, dose level Low, time 3 day

SMILES: O=c1[nH]c(=O)n([C@H]2C[C@H](O)[C@@H](CO)O2)cc1F [FLOXURIDINE]
- ABSOLUTE BASOPHIL [1]: 0 CELLS/uL
- ABSOLUTE EOSINOPHIL [1]: 0 CELLS/uL
- ABSOLUTE LYMPHOCYTE [1]: 11636.83 CELLS/uL
- ABSOLUTE MONOCYTE [1]: 159 CELLS/uL
- ABSOLUTE SEGMENTED NEUTROPHIL [1]: 1170.83 CELLS/uL
- BASOPHIL [1]: 0%
- EOSINOPHIL [1]: 0%
- ERYTHROCYTE COUNT [1]: 5.46 x10E6/uL
- HEMATOCRIT [1]: 34.05%
- HEMOGLOBIN [1]: 13.58 G/DL
- LEUKOCYTE COUNT [1]: 12.97 x10E3/uL
- LYMPHOCYTE [1]: 89.67%
- MEAN CORPUSCULAR HEMOGLOBIN [1]: 24.87 pg
- MEAN CORPUSCULAR HEMOGLOBIN CONCENTRATION [1]: 39.9 G/DL
- MEAN CORPUSCULAR VOLUME [1]: 62.3 fL
- MONOCYTE [1]: 1.33%
- NEUTROPHIL [1]: 9%
- NUCLEATED RED BLOOD CELLS [1]: 0.17 /100WBC
- PLATELET COUNT [1]: 824 x10E3/uL
- ALANINE AMINOTRANSFERASE [1]: 64.83 u/L
- ALBUMIN [1]: 4.08 G/DL
- ALKALINE PHOSPHATASE [1]: 421 u/L
- ASPARTATE AMINOTRANSFERASE [1]: 116.83 u/L
- BLOOD UREA NITROGEN [1]: 16.83 mg/dL
- CARBON DIOXIDE [1]: 28 mmol/L
- CHLORIDE [1]: 101.33 MEQ/L
- CHOLESTEROL [1]: 74.17 mg/dL
- CREATINE PHOSPHOKINASE [1]: 748.5 u/L
- CREATININE [1]: 0.22 mg/dL
- GLUCOSE [1]: 152.83 mg/dL
- LACTATE DEHYDROGENASE [1]: 578.5 u/L
- LIPASE [1]: 9.83 u/L
- PHOSPHORUS [1]: 11.63 mg/dL
- POTASSIUM [1]: 5.93 MEQ/L
- SODIUM [1]: 142.1 MEQ/L
- TOTAL BILIRUBIN [1]: 0.17 mg/dL
- TOTAL PROTEIN [1]: 5.77 G/DL
- URIC ACID [1]: 1.43 mg/dL
- ABSOLUTE BASOPHIL [2]: 0 CELLS/uL
- ABSOLUTE EOSINOPHIL [2]: 159.17 CELLS/uL
- ABSOLUTE LYMPHOCYTE [2]: 12267.5 CELLS/uL
- ABSOLUTE MONOCYTE [2]: 30 CELLS/uL
- ABSOLUTE SEGMENTED NEUTROPHIL [2]: 1160 CELLS/uL
- BASOPHIL [2]: 0%
- EOSINOPHIL [2]: 1.17%
- ERYTHROCYTE COUNT [2]: 5.52 x10E6/uL
- HEMATOCRIT [2]: 34.3%
- HEMOGLOBIN [2]: 13.73 G/DL
- LEUKOCYTE COUNT [2]: 13.62 x10E3/uL
- LYMPHOCYTE [2]: 90.5%
- MEAN CORPUSCULAR HEMOGLOBIN [2]: 24.92 pg
- MEAN CORPUSCULAR HEMOGLOBIN CONCENTRATION [2]: 40.07 G/DL
- MEAN CORPUSCULAR VOLUME [2]: 62.17 fL
- MONOCYTE [2]: 0.17%
- NEUTROPHIL [2]: 8.17%
- NUCLEATED RED BLOOD CELLS [2]: 0.17 /100WBC
- PLATELET COUNT [2]: 1261.83 x10E3/uL
- ALANINE AMINOTRANSFERASE [2]: 58.67 u/L
- ALBUMIN [2]: 4.15 G/DL
- ALKALINE PHOSPHATASE [2]: 364.67 u/L
- ASPARTATE AMINOTRANSFERASE [2]: 105.33 u/L
- BLOOD UREA NITROGEN [2]: 17.67 mg/dL
- CARBON DIOXIDE [2]: 26.5 mmol/L
- CHLORIDE [2]: 101.67 MEQ/L
- CHOLESTEROL [2]: 63 mg/dL
- CREATINE PHOSPHOKINASE [2]: 480.67 u/L
- CREATININE [2]: 0.17 mg/dL
- GLUCOSE [2]: 144.67 mg/dL
- LACTATE DEHYDROGENASE [2]: 540.33 u/L
- LIPASE [2]: 10.33 u/L
- PHOSPHORUS [2]: 11.52 mg/dL
- POTASSIUM [2]: 6.12 MEQ/L
- SODIUM [2]: 142.45 MEQ/L
- TOTAL BILIRUBIN [2]: 0.18 mg/dL
- TOTAL PROTEIN [2]: 5.73 G/DL
- URIC ACID [2]: 1.48 mg/dL
- ABSOLUTE BASOPHIL [3]: 0 CELLS/uL
- ABSOLUTE EOSINOPHIL [3]: 0 CELLS/uL
- ABSOLUTE LYMPHOCYTE [3]: 9392.67 CELLS/uL
- ABSOLUTE MONOCYTE [3]: 101.67 CELLS/uL
- ABSOLUTE SEGMENTED NEUTROPHIL [3]: 505.67 CELLS/uL
- BASOPHIL [3]: 0%
- EOSINOPHIL [3]: 0%
- ERYTHROCYTE COUNT [3]: 5.12 x10E6/uL
- HEMATOCRIT [3]: 32.33%
- HEMOGLOBIN [3]: 13.1 G/DL
- LEUKOCYTE COUNT [3]: 10 x10E3/uL
- LYMPHOCYTE [3]: 94%
- MEAN CORPUSCULAR HEMOGLOBIN [3]: 25.7 pg
- MEAN CORPUSCULAR HEMOGLOBIN CONCENTRATION [3]: 40.53 G/DL
- MEAN CORPUSCULAR VOLUME [3]: 63.17 fL
- MONOCYTE [3]: 1%
- NEUTROPHIL [3]: 5%
- NUCLEATED RED BLOOD CELLS [3]: 0 /100WBC
- PLATELET COUNT [3]: 833.67 x10E3/uL
- ALANINE AMINOTRANSFERASE [3]: 54.67 u/L
- ALBUMIN [3]: 4.4 G/DL
- ALKALINE PHOSPHATASE [3]: 391.67 u/L
- ASPARTATE AMINOTRANSFERASE [3]: 100 u/L
- BLOOD UREA NITROGEN [3]: 17 mg/dL
- CARBON DIOXIDE [3]: 29.67 mmol/L
- CHLORIDE [3]: 101 MEQ/L
- CHOLESTEROL [3]: 79 mg/dL
- CREATINE PHOSPHOKINASE [3]: 755 u/L
- CREATININE [3]: 0.22 mg/dL
- GLUCOSE [3]: 171 mg/dL
- LACTATE DEHYDROGENASE [3]: 240.33 u/L
- LIPASE [3]: 9 u/L
- PHOSPHORUS [3]: 10.77 mg/dL
- POTASSIUM [3]: 6.26 MEQ/L
- SODIUM [3]: 142.13 MEQ/L
- TOTAL BILIRUBIN [3]: 0.2 mg/dL
- TOTAL PROTEIN [3]: 6.17 G/DL
- URIC ACID [3]: 2.23 mg/dL

Source: ChEMBL document CHEMBL3885881, “DrugMatrix”
